Source: patent USRE40086E1, “Method for treating bacterial infection with novel 7-substituted-9-substituted amino 6-demethyl-6-deoxytetracyclines” (Wyeth Holdings Corporation, priority 1991, dated 2008)
Structures can show the parent of a compound that is named as a salt.

Tests used:
Enterococcus faecalis = test: MIC against clinical isolates (Table V, A and O); assay type: cell-based; conditions: Enterococcus faecalis clinical isolates, (14) tested
Haemophilus influenzae = test: MIC against clinical isolates (Table V, A and O); assay type: cell-based; conditions: (18) tested
Klebsiella pneumoniae = test: MIC against clinical isolates (Table V, A and O); assay type: cell-based; conditions: Klebsiella pneumoniae clinical isolates, (10) tested
[1] = system: Ps. acruginosa ATCC 27853; test: MIC, agar dilution (Table IA); assay type: cell-based; conditions: unit assumed
[2] = system: Salmonella spp. (Clinical); assay type: cell-based; conditions: [11] tested
S. aureus NEMC 8769/89-4 = test: MIC, agar dilution (Table IA); assay type: cell-based; conditions: unit assumed
Clostridium spp. = assay type: cell-based; conditions: [9] tested
E. coli J2175 = test: MIC, agar dilution (Table IA); assay type: cell-based; conditions: unit assumed
E. coli PRP1 TetA = test: MIC, agar dilution (Table IA); assay type: cell-based; conditions: unit assumed
S. aureus SMITH (sens) = test: In vivo antibacterial evaluation, acute lethal infection in mice; conditions: Intraveneous
[3] = system: Salmonella cholerasuis (Agricultural); test: MIC vs recent clinical and agricultural isolates (Table V, KK); assay type: cell-based; conditions: [15] tested

| Structure (SMILES) | MIC Range (Enterococcus faecalis) [µg/mL] | MIC50 (Enterococcus faecalis; read-out: MIC50) [µg/mL] | MIC90 (Enterococcus faecalis; read-out: MIC90) [µg/mL] | MIC50 (Haemophilus influenzae) [µg/mL] | MIC90 (Haemophilus influenzae) [µg/mL] | MIC Range (Haemophilus influenzae) [µg/mL] | MIC50 (Klebsiella pneumoniae; read-out: MIC50) [µg/mL] | MIC90 (Klebsiella pneumoniae; read-out: MIC90) [µg/mL] | Antibacterial activity (MIC) [1] [µg/mL] | MIC (range over isolates) [2] [µg/mL] | Antibacterial activity (MIC) (S. aureus NEMC 8769/89-4) [µg/mL] | MIC (range over isolates) (Clostridium spp.) [µg/mL] | Antibacterial activity (MIC) (E. coli J2175) [µg/mL] | Antibacterial activity (MIC) (E. coli PRP1 TetA) [µg/mL] | ED50 (S. aureus SMITH (sens)) [mg/kg] | MIC (range over isolates) [3] [µg/mL] |
| --- | --- | --- | --- | --- | --- | --- | --- | --- | --- | --- | --- | --- | --- | --- | --- | --- |
| CN(C)c1ccc(O)c2c1C[C@H]1C[C@H]3[C@H](N(C)C)C(O)=C(C(N)=O)C(=O)[C@@]3(O)C(O)=C1C2=O [Compound O, 7-(Dimethylamino)-6-demethyl-6-deoxytetracycline hydrochloride (minocycline hydrochloride), reference compound] | <0.015 to 16.00 | 4 | 16 | 0.12 | 0.25 | 0.06 to 0.25 | 1 | 4 | – | – | – | – | – | – | – | – |
| CN(C)CC(=O)Nc1cc(N(C)C)c2c(c1O)C(=O)C1=C(O)[C@]3(O)C(=O)C(C(N)=O)=C(O)[C@@H](N(C)C)C3CC1C2.Cl.Cl (stereo partly drawn) [KK, [4S-(4alpha,12aalpha)]-4,7-Bis(dimethylamino)-9-[[(dimethylamino)acetyl]amino]-1,4,4a,5,5a,6,11,12a-octahydro-3,10,12,12a-tetrahydroxy-1,11-dioxo-2-naphthacenecarboxamide dihydrochloride] | – | – | – | – | – | – | – | – | 4 | 0.25 to 0.5 | 0.06 | 0.015 to 0.12 | 0.25 | 1 | 0.68 | 0.5 to 16 |
